Assay results reported in ChEMBL document CHEMBL3885881, “DrugMatrix”.

Organism: Rattus norvegicus
Test: DrugMatrix - Regimen: Daily Repeat
Type: toxicity, organism-based, Sprague-Dawley
Set-up: regimen Daily Repeat, gender Male, age 6-8 weeks
Conditions: in vivo, po, route oral GAVAGE, vehicle .5 % CMC; for ABSOLUTE BASOPHIL / ABSOLUTE EOSINOPHIL / ABSOLUTE LYMPHOCYTE / ABSOLUTE MONOCYTE / ABSOLUTE SEGMENTED NEUTROPHIL / BASOPHIL / EOSINOPHIL / ERYTHROCYTE COUNT / HEMATOCRIT / HEMOGLOBIN / LEUKOCYTE COUNT / LYMPHOCYTE / MEAN CORPUSCULAR HEMOGLOBIN / MEAN CORPUSCULAR HEMOGLOBIN CONCENTRATION / MEAN CORPUSCULAR VOLUME / MONOCYTE / NEUTROPHIL / NUCLEATED RED BLOOD CELLS / PLATELET COUNT: tissue Blood; for ALANINE AMINOTRANSFERASE / ALBUMIN / ALKALINE PHOSPHATASE / ASPARTATE AMINOTRANSFERASE / BLOOD UREA NITROGEN / CARBON DIOXIDE / CHLORIDE / CHOLESTEROL / CREATINE PHOSPHOKINASE / CREATININE / GLUCOSE / LACTATE DEHYDROGENASE / LIPASE / PHOSPHORUS / POTASSIUM / SODIUM / TOTAL BILIRUBIN / TOTAL PROTEIN / URIC ACID: tissue Plasma
[1] = 0 mg/kg, 72 h, dose level Control, time 3 day
[2] = 0 mg/kg, 120 h, dose level Control, time 5 day
[3] = […], 72 h, dose 0.83 mg/Kg, dose level Low, time 3 day
[4] = […], 120 h, dose 0.83 mg/Kg, dose level Low, time 5 day

C[C@]12CC[C@@H]3c4ccc(O)cc4CC[C@H]3[C@@H]1C[C@@H](O)[C@@H]2O [ESTRIOL]
ABSOLUTE BASOPHIL [1]: 0 CELLS/uL | ABSOLUTE EOSINOPHIL [1]: 171.33 CELLS/uL | ABSOLUTE LYMPHOCYTE [1]: 13776.5 CELLS/uL | ABSOLUTE MONOCYTE [1]: 180.83 CELLS/uL | ABSOLUTE SEGMENTED NEUTROPHIL [1]: 1121.33 CELLS/uL | BASOPHIL [1]: 0% | EOSINOPHIL [1]: 1% | ERYTHROCYTE COUNT [1]: 5.56 x10E6/uL | HEMATOCRIT [1]: 34.75% | HEMOGLOBIN [1]: 13.68 G/DL | LEUKOCYTE COUNT [1]: 15.25 x10E3/uL | LYMPHOCYTE [1]: 90.17% | MEAN CORPUSCULAR HEMOGLOBIN [1]: 24.6 pg | MEAN CORPUSCULAR HEMOGLOBIN CONCENTRATION [1]: 39.4 G/DL | MEAN CORPUSCULAR VOLUME [1]: 62.48 fL | MONOCYTE [1]: 1.17% | NEUTROPHIL [1]: 7.67% | NUCLEATED RED BLOOD CELLS [1]: 0 /100WBC | PLATELET COUNT [1]: 1342 x10E3/uL | ALANINE AMINOTRANSFERASE [1]: 49.67 u/L | ALBUMIN [1]: 4.15 G/DL | ALKALINE PHOSPHATASE [1]: 346.83 u/L | ASPARTATE AMINOTRANSFERASE [1]: 108.17 u/L | BLOOD UREA NITROGEN [1]: 17.33 mg/dL | CARBON DIOXIDE [1]: 25 mmol/L | CHLORIDE [1]: 100.83 MEQ/L | CHOLESTEROL [1]: 66.83 mg/dL | CREATINE PHOSPHOKINASE [1]: 788 u/L | CREATININE [1]: 0.18 mg/dL | GLUCOSE [1]: 151.67 mg/dL | LACTATE DEHYDROGENASE [1]: 982.5 u/L | LIPASE [1]: 10.33 u/L | PHOSPHORUS [1]: 11.23 mg/dL | POTASSIUM [1]: 6.37 MEQ/L | SODIUM [1]: 141.02 MEQ/L | TOTAL BILIRUBIN [1]: 0.18 mg/dL | TOTAL PROTEIN [1]: 5.9 G/DL | URIC ACID [1]: 1.8 mg/dL | ABSOLUTE BASOPHIL [2]: 0 CELLS/uL | ABSOLUTE EOSINOPHIL [2]: 69 CELLS/uL | ABSOLUTE LYMPHOCYTE [2]: 13632.83 CELLS/uL | ABSOLUTE MONOCYTE [2]: 139.83 CELLS/uL | ABSOLUTE SEGMENTED NEUTROPHIL [2]: 1225 CELLS/uL | BASOPHIL [2]: 0% | EOSINOPHIL [2]: 0.33% | ERYTHROCYTE COUNT [2]: 5.52 x10E6/uL | HEMATOCRIT [2]: 33.98% | HEMOGLOBIN [2]: 13.22 G/DL | LEUKOCYTE COUNT [2]: 15.07 x10E3/uL | LYMPHOCYTE [2]: 90.83% | MEAN CORPUSCULAR HEMOGLOBIN [2]: 23.95 pg | MEAN CORPUSCULAR HEMOGLOBIN CONCENTRATION [2]: 38.9 G/DL | MEAN CORPUSCULAR VOLUME [2]: 61.53 fL | MONOCYTE [2]: 0.83% | NEUTROPHIL [2]: 8% | NUCLEATED RED BLOOD CELLS [2]: 0 /100WBC | PLATELET COUNT [2]: 1196 x10E3/uL | ALANINE AMINOTRANSFERASE [2]: 49.17 u/L | ALBUMIN [2]: 4.2 G/DL | ALKALINE PHOSPHATASE [2]: 352.33 u/L | ASPARTATE AMINOTRANSFERASE [2]: 89.67 u/L | BLOOD UREA NITROGEN [2]: 18 mg/dL | CARBON DIOXIDE [2]: 27.67 mmol/L | CHLORIDE [2]: 101 MEQ/L | CHOLESTEROL [2]: 72.83 mg/dL | CREATINE PHOSPHOKINASE [2]: 417.5 u/L | CREATININE [2]: 0.18 mg/dL | GLUCOSE [2]: 150.5 mg/dL | LACTATE DEHYDROGENASE [2]: 517.33 u/L | LIPASE [2]: 9 u/L | PHOSPHORUS [2]: 11.87 mg/dL | POTASSIUM [2]: 6.57 MEQ/L | SODIUM [2]: 143.62 MEQ/L | TOTAL BILIRUBIN [2]: 0.2 mg/dL | TOTAL PROTEIN [2]: 6.08 G/DL | URIC ACID [2]: 1.45 mg/dL | ABSOLUTE BASOPHIL [3]: 0 CELLS/uL | ABSOLUTE EOSINOPHIL [3]: 41 CELLS/uL | ABSOLUTE LYMPHOCYTE [3]: 11813.33 CELLS/uL | ABSOLUTE MONOCYTE [3]: 115.33 CELLS/uL | ABSOLUTE SEGMENTED NEUTROPHIL [3]: 930.33 CELLS/uL | BASOPHIL [3]: 0% | EOSINOPHIL [3]: 0.33% | ERYTHROCYTE COUNT [3]: 5.37 x10E6/uL | HEMATOCRIT [3]: 33.8% | HEMOGLOBIN [3]: 13.17 G/DL | LEUKOCYTE COUNT [3]: 12.9 x10E3/uL | LYMPHOCYTE [3]: 91.33% | MEAN CORPUSCULAR HEMOGLOBIN [3]: 24.53 pg | MEAN CORPUSCULAR HEMOGLOBIN CONCENTRATION [3]: 38.97 G/DL | MEAN CORPUSCULAR VOLUME [3]: 62.9 fL | MONOCYTE [3]: 1% | NEUTROPHIL [3]: 7.33% | NUCLEATED RED BLOOD CELLS [3]: 0 /100WBC | PLATELET COUNT [3]: 1229.33 x10E3/uL | ALANINE AMINOTRANSFERASE [3]: 41.67 u/L | ALBUMIN [3]: 4.13 G/DL | ALKALINE PHOSPHATASE [3]: 500 u/L | ASPARTATE AMINOTRANSFERASE [3]: 89.33 u/L | BLOOD UREA NITROGEN [3]: 17.67 mg/dL | CARBON DIOXIDE [3]: 23.67 mmol/L | CHLORIDE [3]: 103.67 MEQ/L | CHOLESTEROL [3]: 36 mg/dL | CREATINE PHOSPHOKINASE [3]: 654.33 u/L | CREATININE [3]: 0.23 mg/dL | GLUCOSE [3]: 162 mg/dL | LACTATE DEHYDROGENASE [3]: 616.67 u/L | LIPASE [3]: 10.67 u/L | PHOSPHORUS [3]: 11.97 mg/dL | POTASSIUM [3]: 6.03 MEQ/L | SODIUM [3]: 144.8 MEQ/L | TOTAL BILIRUBIN [3]: 0.17 mg/dL | TOTAL PROTEIN [3]: 6 G/DL | URIC ACID [3]: 1.6 mg/dL | ABSOLUTE BASOPHIL [4]: 0 CELLS/uL | ABSOLUTE EOSINOPHIL [4]: 0 CELLS/uL | ABSOLUTE LYMPHOCYTE [4]: 12894 CELLS/uL | ABSOLUTE MONOCYTE [4]: 233.33 CELLS/uL | ABSOLUTE SEGMENTED NEUTROPHIL [4]: 972.67 CELLS/uL | BASOPHIL [4]: 0% | EOSINOPHIL [4]: 0% | ERYTHROCYTE COUNT [4]: 5.98 x10E6/uL | HEMATOCRIT [4]: 36.97% | HEMOGLOBIN [4]: 13.8 G/DL | LEUKOCYTE COUNT [4]: 14.1 x10E3/uL | LYMPHOCYTE [4]: 91.33% | MEAN CORPUSCULAR HEMOGLOBIN [4]: 23.07 pg | MEAN CORPUSCULAR HEMOGLOBIN CONCENTRATION [4]: 37.33 G/DL | MEAN CORPUSCULAR VOLUME [4]: 61.87 fL | MONOCYTE [4]: 1.67% | NEUTROPHIL [4]: 7% | NUCLEATED RED BLOOD CELLS [4]: 0 /100WBC | PLATELET COUNT [4]: 1068.67 x10E3/uL | ALANINE AMINOTRANSFERASE [4]: 43.67 u/L | ALBUMIN [4]: 4.23 G/DL | ALKALINE PHOSPHATASE [4]: 477 u/L | ASPARTATE AMINOTRANSFERASE [4]: 80.33 u/L | BLOOD UREA NITROGEN [4]: 17.33 mg/dL | CARBON DIOXIDE [4]: 26.33 mmol/L | CHLORIDE [4]: 101.67 MEQ/L | CHOLESTEROL [4]: 36.33 mg/dL | CREATINE PHOSPHOKINASE [4]: 414 u/L | CREATININE [4]: 0.19 mg/dL | GLUCOSE [4]: 148.33 mg/dL | LACTATE DEHYDROGENASE [4]: 577 u/L | LIPASE [4]: 8.33 u/L | PHOSPHORUS [4]: 10.9 mg/dL | POTASSIUM [4]: 6.26 MEQ/L | SODIUM [4]: 144.2 MEQ/L | TOTAL BILIRUBIN [4]: 0.23 mg/dL | TOTAL PROTEIN [4]: 6.3 G/DL | URIC ACID [4]: 1.63 mg/dL
